Measurements reported in US10760052B2, “Method of inhibiting tau phosphorylation” (priority 2012, dated 2020).
Like-named read-outs stand apart in the source and are kept apart here.

Biological target: T1, mu opiate receptor (MOR) (Rattus norvegicus, UniProt P33535)
T1 construct: from tissue; host or cells: striatum (membrane preparation)
Assay type: biochemical
Conditions: for [35S]GTPγS binding, FLNA-Binding Compound as Agonist at 0.1 μM: 0.1 μM compound; for [35S]GTPγS binding, FLNA-Binding Compound as Agonist at 0.1 μM / [35S]GTPγS binding, FLNA-Binding Compound as Agonist at 1 μM: striatal membranes; for [35S]GTPγS binding, FLNA-Binding Compound as Agonist at 0.1 μM / [35S]GTPγS binding, FLNA-Binding Compound as Agonist at 1 μM + BFNA / [35S]GTPγS binding, FLNA-Binding Compound as Agonist at 1 μM: Series C-2; for [35S]GTPγS binding, FLNA-Binding Compound as Agonist at 1 μM + BFNA: 1 μM compound + 1 μM β-FNA (selective MOR antagonist); for [35S]GTPγS binding, FLNA-Binding Compound as Agonist at 1 μM: 1 μM compound

[1] = [35S]GTPγS binding to Gαo in striatal membranes, compound 0.1 μM
[2] = [35S]GTPγS binding to Gαo in striatal membranes, compound 1 μM
[3] = [35S]GTPγS binding to Gαo in striatal membranes, compound 1 μM plus 1 μM β-funaltrexamine (MOR antagonist)

T1 sequence (P33535 whole entry): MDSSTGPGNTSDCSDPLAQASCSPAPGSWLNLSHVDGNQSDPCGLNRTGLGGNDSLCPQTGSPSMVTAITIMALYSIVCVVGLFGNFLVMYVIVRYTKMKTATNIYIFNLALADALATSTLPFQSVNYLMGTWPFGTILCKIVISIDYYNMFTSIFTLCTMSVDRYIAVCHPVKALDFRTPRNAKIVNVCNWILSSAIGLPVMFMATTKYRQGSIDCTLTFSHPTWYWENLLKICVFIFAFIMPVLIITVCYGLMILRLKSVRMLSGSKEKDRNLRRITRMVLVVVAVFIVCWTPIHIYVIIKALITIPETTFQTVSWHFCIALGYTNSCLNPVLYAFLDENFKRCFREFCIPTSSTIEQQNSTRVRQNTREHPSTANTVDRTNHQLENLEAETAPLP

Row | SMILES | % DAMGO (0.1 μM) [%] | % DAMGO (1 μM) [%] | % DAMGO + BFNA [%] | [35S]GTPγS binding, FLNA-Binding Compound as Agonist at 0.1 μM [%] | [35S]GTPγS binding, FLNA-Binding Compound as Agonist at 1 μM + BFNA [%] | [35S]GTPγS binding, FLNA-Binding Compound as Agonist at 1 μM [%] | Concentration of FLNA-Binding Compound as Agonist 0.1 μM [1] [%] | Concentration of FLNA-Binding Compound as Agonist 1 μM [2] [%] | Concentration of FLNA-Binding Compound as Agonist 1 μM + BFNA [3] [%] | Concentration of FLNA-Binding Compound as Agonist 0.1 μM [%] | Concentration of FLNA-Binding Compound as Agonist 1 μM [%] | Concentration of FLNA-Binding Compound as Agonist 1 μM + BFNA [%]
1 | COc1ccc(S(=O)(=O)N2CCOC23CCN(C(C)C)CC3)cc1 [Compound C0133M] | 83.2 | 96.6 | 152.4 | 139.4 | 72.4 | 214.8 |  |  |  |  |  | 
2 | COc1cc(CC(=O)CC2c3c(cc4c(c3OC)OCO4)CC[N+]2(C)C)cc(OC)c1OC (stereo not drawn) [Compound B0008] | 84.0 | 101.9 | 70.0 |  |  |  | 148.3 | 264.1 | 46.0 |  |  | 
3 | CC1CCC(C(C)C)C(OCC(O)CN2CCN(CCc3ccccc3)CC2)C1 (stereo not drawn) [Compound A0020] | 100.9 | 88.7 | 194.2 |  |  |  | 168.6 | 217.4 | 67.4 |  |  | 
4 | O=S(=O)(c1ccc(C(F)(F)F)cc1Br)N1CCC2(CC1)OCCN2S(=O)(=O)c1ccc(C(F)(F)F)cc1Br [Compound C0071] | 160.5 | 161.7 | 513.3 |  |  |  | 276.3 | 355.3 | 177.1 |  |  | 
5 | COc1ccc(S(=O)(=O)N2CCC3(CC2)OCCN3S(=O)(=O)c2ccc(C(C)=O)cc2)cc1 [Compound C0048] | 144.2 | 105.3 | 204.3 |  |  |  |  |  |  | 209.1 | 245.3 | 89.9
6 | O=C1CN(C2CCc3ccccc3C2)C2(CCN(S(=O)(=O)c3ccccc3)CC2)N1 (stereo not drawn) [C0136M(P5)] | 93.4 | 95.6 | 153.6 | 176.8 | 74.5 | 237.3 |  |  |  |  |  | 
7 | OC(COc1cccc(C(F)(F)F)c1)CN1CCc2ccccc2C1 (stereo not drawn) [Compound A0054] | 44.4 | 63.9 | 348.9 |  |  |  | 74.9 | 159.2 | 114.1 |  |  | 
8 | O=S(=O)(c1ccc(F)c(F)c1)N1CCC2(CC1)OCCN2S(=O)(=O)c1ccc(F)c(F)c1 [Compound C0072] | 100.3 | 117.9 | 194.5 |  |  |  | 172.7 | 259.1 | 67.1 |  |  | 
9 | O=S(=O)(c1ccc(C(F)(F)F)cc1)N1CCC2(CC1)OCCN2S(=O)(=O)c1ccc(C(F)(F)F)cc1 [Compound C0012] | 54.8 | 86.7 | 280.7 |  |  |  | 96.8 | 224.8 | 184.4 |  |  | 
10 | CCOC(=O)CN1CCC2(CC1)OCCN2S(=O)(=O)c1ccc(C(C)=O)cc1 [Compound C0099M] | 93.8 | 88.0 | 241.5 | 157.2 | 114.7 | 195.7 |  |  |  |  |  | 
11 | O=S(=O)(c1ccc(Br)cc1F)N1CCC2(CC1)OCCN2S(=O)(=O)c1ccc(Br)cc1F [Compound C0078] | 82.4 | 106.4 | 359.4 |  |  |  | 138.1 | 236.6 | 170.7 |  |  | 
12 | O=S(=O)(c1ccc(Cl)cc1)N1CCC2(CC1)OCCN2S(=O)(=O)c1ccc(Cl)cc1 [Compound C0067] | 82.9 | 81.5 | 97.1 |  |  |  | 142.7 | 179.0 | 33.5 |  |  | 
13 | COc1ccc(S(=O)(=O)N2CCC3(CC2)OCCN3S(=O)(=O)c2ccc(OC)cc2)cc1 [Compound 7866] | 79.3 | 94.8 | 129.5 |  |  |  | 152.3 | 308.2 | 62.4 |  |  | 
14 | CC(=O)c1ccc(S(=O)(=O)N2CCC3(CC2)NCCS3)cc1 [Compound C0060] | 114.8 | 93.9 | 327.0 | 166.5 | 143.9 | 218.9 |  |  |  |  |  | 
